Experimental data reported in ChEMBL document CHEMBL1201861, “Genomics of Drug Sensitity in Cancer screening data, Wellcome Trust Sanger Institute”.

Tests used:
Experiment in all cases: cells
Settings in all cases: Homo sapiens
TE-1 = type: functional, cell-based;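 also: growth inhibition of the human TE-1 cell line, read out with a cell viability assay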
JVM-2 = type: functional, cell-based;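 also: growth inhibition of JVM-2 cells determined by a cell viability assay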
SK-MEL-2 = type: functional, cell-based;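 also: growth inhibition of human SK-MEL-2 cells measured with a cell viability assay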
SCC-15 = type: functional, cell-based;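 also: growth inhibition of SCC-15 cells, read out with a cell viability assay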
NCI-H747 = type: functional, cell-based;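 also: growth inhibition of human NCI-H747 cells, read out by a cell viability assay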
SW872 = type: functional, cell-based;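 also: growth inhibition of SW872 cells, read out by a viability assay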
SNU-C2B = type: functional, cell-based;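 also: cell viability readout used to measure compound-driven suppression of SNU-C2B cell proliferation, IC50 marking half-maximal growth inhibition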
RS4-11 = type: functional, cell-based;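 also: growth inhibition of RS4-11 cells, read out by a cell viability assay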
ACN = type: functional, cell-based;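 also: growth inhibition of the human ACN cell line, read out via cell viability testing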
SHP77 = type: functional, cell-based, SHP-77;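 also: growth inhibition of human SHP-77 cells measured by a cell viability assay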
MDA-MB-175-VII = type: functional, cell-based
NMC-G1 = type: functional, cell-based;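 also: growth inhibition of the NMC-G1 cell line, measured with a cell viability read-out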
Lu-65 = type: functional, cell-based;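 also: growth inhibition of Lu-65 cancer cells, read out by a cell viability assay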
DJM-1 = type: functional, cell-based;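 also: growth inhibition of human DJM-1 cells, read out by a cell viability assay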
BHY = type: functional, cell-based;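 also: cell growth inhibition read out by a viability assay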
LS-1034 = type: functional, cell-based
NB6 = type: functional, cell-based;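 also: growth inhibition of NB6 cells, read out by a cell viability assay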
NCI-H1581 = type: functional, cell-based;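 also: cell growth inhibition read out by a viability assay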
UACC-257 = type: functional, cell-based
ES8 = type: functional, cell-based;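 also: growth inhibition of human ES8 cells, read out with a cell viability assay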
LS-123 = type: functional, cell-based
HCE-4 = type: functional, cell-based;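 also: cell viability assay measuring inhibition of growth in the human HCE-4 cell line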
EW-18 = type: functional, cell-based;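 also: growth inhibition of EW-18 cells, read out by a cell viability assay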
RPMI-8866 = type: functional, cell-based
SJRH30 = type: functional, cell-based;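 also: growth inhibition of human SJRH30 cells, read out with a cell viability assay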
HAL-01 = type: functional, cell-based;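 also: growth inhibition of human HAL-01 cells, read out with a cell viability assay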
NCI-H69 = type: functional, cell-based;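 also: growth inhibition of the cell line, read out with a cell viability assay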
LS-411N = type: functional, cell-based
SF-268 = type: functional, cell-based;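 also: growth inhibition of SF-268 cells determined with a cell viability assay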
MFH-ino = type: functional, cell-based;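 also: growth inhibition of human MFH-ino cells, read out by a cell viability assay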
NCI-H526 = type: functional, cell-based;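 also: growth inhibition of the human NCI-H526 cell line, measured by a cell viability assay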
A4-Fuk = type: functional, cell-based;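 also: growth inhibition of A4-Fuk cells, read out by a cell viability assay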
NKM-1 = type: functional, cell-based;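 also: growth inhibition of NKM-1 cells, read out with a cell viability assay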
EOL1 = type: functional, cell-based;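 also: growth inhibition of EoL-1 cells, read out by a cell viability assay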
ESS-1 = type: functional, cell-based;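 also: growth inhibition of human ESS-1 cells, read out by a cell viability assay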
LB2518-MEL = type: functional, cell-based;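 also: growth inhibition of human LB2518-MEL cells, measured with a cell viability assay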
AM-38 = type: functional, cell-based;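 also: growth inhibition of AM-38 cells of human origin, read out by a cell viability assay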
K5 = type: functional, cell-based
NCI-H209 = type: functional, cell-based;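 also: growth inhibition of human NCI-H209 cells, measured by a cell viability assay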
SBC-5 = type: functional, cell-based;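 also: cell viability assay read-out, IC50 is the concentration that inhibits growth of the cells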
SJSA-1 = type: functional, cell-based;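 also: growth inhibition of human SJSA-1 cells, read out through a cell viability measurement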
CHP-212 = type: functional, cell-based
QIMR-WIL = type: functional, cell-based;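 also: growth inhibition of QIMR-WIL cells, read out with a cell viability assay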
HH = type: functional, cell-based
COLO-829 = type: functional, cell-based
GI-ME-N = type: functional, cell-based;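 also: growth inhibition of human GI-ME-N cells, read out with a cell viability assay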
P30-OHK = type: functional, cell-based;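 also: growth inhibition of the P30-OHK cell line, read out with a cell viability assay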
COLO-320-HSR = type: functional, cell-based;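 also: growth inhibition of COLO-320-HSR cells, determined with a cell viability assay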
MPP-89 = type: functional, cell-based;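 also: growth inhibition of human MPP-89 cells, read out with a cell viability assay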
NB10 = type: functional, cell-based;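 also: growth inhibition of NB10 cells, read out by a cell viability assay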
LAN-6 = type: functional, cell-based;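 also: growth inhibition of LAN-6 cells, determined with a cell viability assay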
OVCAR-5 = type: functional, cell-based;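 also: growth inhibition of human OVCAR-5 cells, read out with a cell viability assay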
IST-SL1 = type: functional, cell-based;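 also: growth inhibition of human IST-SL1 cells, read out with a cell viability assay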
HCE-T = type: functional, cell-based;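 also: cell viability assay read-out, reporting inhibition of HCE-T cell growth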
U2OS = type: functional, cell-based, U-2-OS;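 also: growth inhibition of human U-2-OS cells, determined with a cell viability assay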
HOP-62 = type: functional, cell-based;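 also: cell growth inhibition determined with a viability assay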
CAS-1 = type: functional, cell-based;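 also: growth inhibition of CAS-1 cells, measured with a cell viability assay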
HCC1187 = type: functional, cell-based;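 also: growth inhibition of HCC1187 cells, read out with a cell viability assay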
NCI-H720 = type: functional, cell-based
PSN1 = type: functional, cell-based
GCIY = type: functional, cell-based
NOS-1 = type: functional, cell-based
OVCAR-4 = type: functional, cell-based
DK-MG = type: functional, cell-based
HCT-116 = type: functional, cell-based

Q: Which results are given for CCNC(=O)c1noc(-c2cc(C(C)C)c(O)cc2O)c1-c1ccc(CN2CCOCC2)cc1 [LUMINESPIB]?
A: IC50 (TE-1): 15.8 nM; IC50 (JVM-2): > 256 nM; IC50 (SK-MEL-2): 125 nM; IC50 (SCC-15): 28 nM; IC50 (NCI-H747): 45.7 nM; IC50 (SW872): 32.2 nM; IC50 (SNU-C2B): 12.7 nM; IC50 (RS4-11): 33.8 nM; IC50 (ACN): 16.6 nM; IC50 (SHP77): 145 nM; IC50 (MDA-MB-175-VII): > 256 nM; IC50 (NMC-G1): 22.8 nM; IC50 (Lu-65): 202 nM; IC50 (DJM-1): 42.7 nM; IC50 (BHY): 19.1 nM; IC50 (LS-1034): 41.9 nM; IC50 (NB6): > 256 nM; IC50 (NCI-H1581): > 256 nM; IC50 (UACC-257): 75.1 nM; IC50 (ES8): 35.4 nM; IC50 (LS-123): 24.4 nM; IC50 (HCE-4): 21.4 nM; IC50 (EW-18): 106 nM; IC50 (RPMI-8866): > 256 nM; IC50 (SJRH30): 94.4 nM; IC50 (HAL-01): > 256 nM; IC50 (NCI-H69): > 256 nM; IC50 (LS-411N): 37.3 nM; IC50 (SF-268): 34 nM; IC50 (MFH-ino): 12.9 nM; IC50 (NCI-H526): 187 nM; IC50 (A4-Fuk): 17 nM; IC50 (NKM-1): 5.47 nM; IC50 (EOL1): > 256 nM; IC50 (ESS-1): 78.7 nM; IC50 (LB2518-MEL): > 256 nM; IC50 (AM-38): 13 nM; IC50 (K5): 13.1 nM; IC50 (NCI-H209): > 256 nM; IC50 (SBC-5): 91.9 nM; IC50 (SJSA-1): 20.4 nM; IC50 (CHP-212): 22.1 nM; IC50 (QIMR-WIL): 12.7 nM; IC50 (HH): 142 nM; IC50 (COLO-829): > 256 nM; IC50 (GI-ME-N): 74.3 nM; IC50 (P30-OHK): > 256 nM; IC50 (COLO-320-HSR): 185 nM; IC50 (MPP-89): 97.2 nM; IC50 (NB10): 237 nM; IC50 (LAN-6): 85 nM; IC50 (OVCAR-5): 18.1 nM; IC50 (IST-SL1): > 256 nM; IC50 (HCE-T): 28.6 nM; IC50 (U2OS): 39.4 nM; IC50 (HOP-62): 15.4 nM; IC50 (CAS-1): 120 nM; IC50 (HCC1187): > 256 nM; IC50 (NCI-H720): > 256 nM; IC50 (PSN1): 3.18 nM; IC50 (GCIY): 20.6 nM; IC50 (NOS-1): 15.9 nM; IC50 (OVCAR-4): 38.6 nM; IC50 (DK-MG): 75.3 nM; IC50 (HCT-116): 152 nM

Q: Which results are given for CO[C@@]12[C@H](COC(N)=O)C3=C(C(=O)C(C)=C(N)C3=O)N1C[C@@H]1N[C@@H]12 [MITOMYCIN]?
A: IC50 (TE-1): 165 nM; IC50 (JVM-2): 397 nM; IC50 (SK-MEL-2): 3970 nM; IC50 (SCC-15): 864 nM; IC50 (NCI-H747): 412 nM; IC50 (SW872): < 62.5 nM; IC50 (SNU-C2B): 295 nM; IC50 (RS4-11): 34.9 nM; IC50 (ACN): 128 nM; IC50 (SHP77): 1380 nM; IC50 (MDA-MB-175-VII): 3160 nM; IC50 (NMC-G1): 217 nM; IC50 (Lu-65): 1010 nM; IC50 (DJM-1): 1030 nM; IC50 (BHY): 75.3 nM; IC50 (LS-1034): 30.2 nM; IC50 (NB6): 2230 nM; IC50 (NCI-H1581): 907 nM; IC50 (UACC-257): 1570 nM; IC50 (ES8): < 62.5 nM; IC50 (LS-123): 1720 nM; IC50 (HCE-4): 57.9 nM; IC50 (EW-18): 3940 nM; IC50 (RPMI-8866): 1320 nM; IC50 (SJRH30): 1670 nM; IC50 (HAL-01): 15.7 nM; IC50 (NCI-H69): 1680 nM; IC50 (LS-411N): 322 nM; IC50 (SF-268): 171 nM; IC50 (MFH-ino): 70.6 nM; IC50 (NCI-H526): 67.4 nM; IC50 (A4-Fuk): 225 nM; IC50 (NKM-1): < 62.5 nM; IC50 (EOL1): 162 nM; IC50 (ESS-1): < 62.5 nM; IC50 (LB2518-MEL): 535 nM; IC50 (AM-38): 221 nM; IC50 (K5): 1780 nM; IC50 (NCI-H209): < 62.5 nM; IC50 (SBC-5): < 62.5 nM; IC50 (SJSA-1): 132 nM; IC50 (CHP-212): < 62.5 nM; IC50 (QIMR-WIL): 120 nM; IC50 (HH): 1070 nM; IC50 (COLO-829): 2090 nM; IC50 (GI-ME-N): 1390 nM; IC50 (P30-OHK): < 62.5 nM; IC50 (COLO-320-HSR): 1080 nM; IC50 (MPP-89): 991 nM; IC50 (NB10): 81.7 nM; IC50 (LAN-6): 328 nM; IC50 (OVCAR-5): 487 nM; IC50 (IST-SL1): 1450 nM; IC50 (HCE-T): 372 nM; IC50 (U2OS): > 16000 nM; IC50 (HOP-62): 20.2 nM; IC50 (CAS-1): 3380 nM; IC50 (HCC1187): 8920 nM; IC50 (NCI-H720): 1540 nM; IC50 (PSN1): < 62.5 nM; IC50 (GCIY): 411 nM; IC50 (NOS-1): 1500 nM; IC50 (OVCAR-4): 697 nM; IC50 (DK-MG): > 16000 nM; IC50 (HCT-116): 1020 nM
